One test concerns the target T1, lysozyme (Gallus gallus, UniProt P00698).
T1 construct: hen egg white lysozyme was purchased from Sigma-Aldrich; purchased Sigma-Aldrich; host or cells: hen egg white
The test is described as follows: DSF thermal stability assay, lysozyme. Also on record: species or system hen.

For a further test, the target named is T2, porcine insulin (Sus scrofa, UniProt P01315).
T2 construct: solutions comprising porcine insulin at a concentration of 129 µM
The test is described as follows: DSF thermal stability assay, porcine insulin. Particulars: insulin 129 µM, solute 0.1 and 0.25 M (FIG. 11).

Test [1] deals with T3, staphylococcal nuclease (SNase) (Staphylococcus aureus, UniProt P00644).
T3 construct: Recombinant staphylococcal nuclease A (SNase) was produced and purified from Escherichia coli cells; made in house; host or cells: Escherichia coli
The test is described as follows: DSF thermal stability assay, staphylococcal nuclease. The conditions noted are these: solute 0.1, 0.25 and 0.5 M (FIG. 8). How it is done:
(§1) The DSF based stability assays were performed at each protein working pH and the melting temperatures (TM) values determined in the absence (control experiments) and in the presence of solutes, and at different solute concentrations. The denaturation curves for each assay were analysed, and the melting temperatures determined by the calculation of the first derivative, which corresponds to the midpoint temperature of the protein-unfolding transition. In the absence of solutes, malate dehydrogenase (MDH), staphylococcal nuclease (SNase) and lysozyme have melting temperatures (TM) of 50, 52 and 71° C. respectively. The unfolding temperature shifts (ΔTM) were calculated by comparing the TM values obtained in the presence of solutes with the TM values of the control experiments (absence of solutes).
(§2) Mannosylglycerate (MG), glucosylglycerate (GG), glucosylglucosylglycerate (GGG), mannosyl glycolate (MGly) and mannosyl lactate (ML) were obtained by chemical synthesis as described in literature (Costa 1998). New synthetic compounds were obtained by chemical synthesis as described in Example 1. […] Purity and concentration of the compounds was assessed by ^1H NMR spectra obtained at 500 MHz spectrometer in D2O. For quantification purposes, spectra were acquired with a repetition delay of 60 s with formate as concentration standard. […]

The target in test [2] is T4, malate dehydrogenase (MDH) (Sus scrofa, UniProt P00346).
T4 construct: Mitochondrial malate dehydrogenase from pig heart (MDII) was purchased from Roche; purchased Roche; host or cells: pig heart
T4 sequence (P00346 25-338): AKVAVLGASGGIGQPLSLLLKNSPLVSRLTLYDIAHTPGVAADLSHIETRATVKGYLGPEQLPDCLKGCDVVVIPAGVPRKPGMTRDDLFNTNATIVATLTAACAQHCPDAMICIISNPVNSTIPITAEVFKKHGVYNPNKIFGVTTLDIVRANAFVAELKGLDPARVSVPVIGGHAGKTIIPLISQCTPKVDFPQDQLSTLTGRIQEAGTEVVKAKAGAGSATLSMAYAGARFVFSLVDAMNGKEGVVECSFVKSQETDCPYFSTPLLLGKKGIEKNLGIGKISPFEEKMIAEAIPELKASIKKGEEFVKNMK
The test is described as follows: DSF thermal stability assay, malate dehydrogenase. The arrangement: species or system pig. The conditions noted are these: solute 0.1, 0.25 and 0.5 M (FIG. 9). How it is done:
as §1, §2

T1 sequence (P00698 19-147): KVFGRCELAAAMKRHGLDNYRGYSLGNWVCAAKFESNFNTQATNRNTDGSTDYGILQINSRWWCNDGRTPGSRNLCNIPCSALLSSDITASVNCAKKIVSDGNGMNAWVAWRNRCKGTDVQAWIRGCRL
T2 sequence (P01315 25-54 limits assumed): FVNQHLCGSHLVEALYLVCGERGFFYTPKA
T2 sequence (P01315 88-108 limits assumed): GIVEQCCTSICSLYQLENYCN
Procedure for lysozyme: The DSF based stability assays were performed at each protein working pH and the melting temperatures (TM) values determined in the absence (control experiments) and in the presence of solutes, and at different solute concentrations. The denaturation curves for each assay were analysed, and the melting temperatures determined by the calculation of the first derivative, which corresponds to the midpoint temperature of the protein-unfolding transition. […] The unfolding temperature shifts (ΔTM) were calculated by comparing the TM values obtained in the presence of solutes with the TM values of the control experiments (absence of solutes).
Mitochondrial malate dehydrogenase from pig heart (MDII) was purchased from Roche, and hen egg white lysozyme was purchased from Sigma-Aldrich. These enzymes were used without further purification.
The protein melting temperature (TM) determination was performed by monitoring protein unfolding with the fluoroprobe SYPRO Orange dye (Molecular Probes), which although completely quenched in aqueous environment, emits fluorescence upon binding to protein hydrophobic patches. Such increase in fluorescence can be measured as a function of temperature using Differential Scanning Fluorimetry. In a typical assay with a total volume of 20 µL, a protein concentration from 0.14 to 0.21 mg/mL, and a dye concentration of 5 fold were used to guarantee the best signal to noise ratio. Protein stock solutions of SNase or MDH were prepared in phosphate buffer (20 mM of sodium phosphate, pH 7.6), and lysozyme was prepared in citrate buffer (40 mM sodium citrate, 110 mM NaCl, pH 6.0). These stock solutions were extensively dialyzed against the same buffer before the assays. […] Solute solutions were prepared in water with the respective concentrations. […] Fluorescence intensities versus temperature are used to calculate the protein melting temperature (TM) by determining the first derivative (d(Rfu)/dT) to extract the exact transition inflection point.

As to `CC(=O)[O-].[K+]` [AcOK, potassium acetate], at lysozyme (AcOK alone, concentration dependence (FIG. 6)), the “stabilising effect of AcOK alone on lysozyme” value was “not a good stabiliser, stabilising only at high salt concentrations”. Moreover, the “stabilising effect of AcOK on lysozyme in conjugation with hypersolutes” value on lysozyme (AcOK with hypersolutes (0.5 M) (FIG. 6)) is listed as “able to enhance their stabilisation properties”. For the molecule `O=C([O-])COC1O[C@H](CO)[C@@H](O)[C@H](O)[C@H]1O.[K+]` (stereo partly drawn) [glucosyl glycolate, Potassium 2-(α/β-D-glucopyranosyl) acetate], the “increment in melting temperature of porcine insulin” value at porcine insulin is given as “highest increases in melting temperature”. In the case of “Potassium (2S) -2-0- (α/β-D-galactopyranosyl)-2-hydroxysuccinate [α-galactosyl malate]”, the “dependence of SNase melting temperature on the concentration of solutes” value in test [1] was “clearly the best stabiliser”. Also, the “dependence of lysozyme melting temperature on the concentration of solutes” value on lysozyme (solute 0.1, 0.25 and 0.5 M (FIG. 10)) is reported as “clearly the best stabiliser”. Turning to “Potassium (2S)-2-O-(α/β-D-glucopyranosyl)-2-hydroxysuccinate [glucosyl malate]”, in test [2], the “dependence of MDH melting temperature on the concentration of solutes” value was “the best stabiliser”. For the same molecule, the “increment in melting temperature of porcine insulin” value at porcine insulin is “highest increases in melting temperature”.
